Common to all, as to assay: NCI anticancer screen, dose series, 48 h
Assay [1] deals with ACHN renal.
Assay [2] has as its system HCT-15 colon.
The test system of assay [3] is HL-60(TB) leukemia.
Assay [4] deals with IGROV1 ovarian.
For assay [5], the system named is KM12 colon.
Assay [6] concerns LOX IMVI melanoma.
Assay [7] deals with MOLT-4 leukemia.
Assay [8] concerns NCI-H522 lung.
Assay [9] has as its system SK-OV-3 ovarian.
Assay [10] has as its system SW-620 colon.

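1) Cells in 96-well plates. 2) Compound, 48 h, 5 concentrations. 3) Linear interpolation between surrounding doses. 4) Unreached endpoint = highest concentration. Here, GI50 denotes the concentration required for 50% inhibition of growth. The concentration for full growth arrest is given as TGI.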

Here are results for 13 compounds from PubChem BioAssay (NCI).

On to `COc1cc(Br)cc2cc(-c3cn4c(n3)sc3ccccc34)c(=O)oc12`, for which the TGI in [1] was greater than 75 µM; in assay [2], greater than 75 µM; in [3] it was 36.2 µM; in assay [4], 34.9 µM; in assay [5], greater than 75 µM; in [6] it was 56.4 µM. In addition, the TGI is 65.4 µM in [7], 28.7 µM in assay [8], greater than 75 µM in assay [9] and greater than 75 µM in assay [10].

Regarding `CCOc1ncn(-c2ccc(NC(=S)NC3OC(CO)C(O)C(O)C3O)cc2)n1` (stereo not given), the TGI in assay [2], in assay [3], in assay [4], in assay [5], in assay [6] and in [7] was greater than 100 µM throughout. Besides, the TGI in assay [8], in assay [9] and in assay [10] was greater than 100 µM throughout.

As for `CCc1cc(Cc2cc(CC)c(NC(=O)C(=O)CC(=O)c3sc(-c4cccnc4)nc3C)c(CC)c2)cc(CC)c1NC(=O)C(=O)CC(=O)c1sc(-c2cccnc2)nc1C`, the TGI in assay [1], in [2], in assay [3], in assay [4], in [5] and in assay [6] was greater than 100 µM in each case. Besides, the TGI in [7], in assay [8], in [9] and in assay [10] was greater than 100 µM in each case.

For the compound `O=C(NC(Cc1ccccc1)(Cc1ccc(O)cn1)C(=O)O)c1ccccc1` (stereo not given), the TGI in [1] was greater than 100 µM; in [2], greater than 100 µM; in assay [3] it was 68.2 µM; in assay [4], greater than 100 µM; in assay [5], greater than 100 µM; in [6], greater than 100 µM. The TGI in assay [7], in [8], in assay [9] and in assay [10] was greater than 100 µM in each case.

In the case of `O=C1NC(=S)NC(=O)C1C(c1ccc(O)cc1)C1C(=O)NC(=S)NC1=O`, the TGI in [1], in assay [2], in assay [3], in [4], in [5] and in assay [6] was greater than 100 µM in each case. In addition, the TGI in assay [7], in [8] and in assay [10] was greater than 100 µM in each case.

For the compound `C[C@@H]1Nc2cc(NC(=O)OCCF)nc(N)c2N=C1c1ccccc1`, the GI50 in [1] was less than 0.0001 µM. For the same compound, the TGI in assay [1] was greater than 100 µM; in assay [2] it was greater than 100 µM; in assay [3], less than 0.0001 µM; in assay [4], less than 0.0001 µM; in [7], less than 0.0001 µM; in assay [8], 0.509 µM. In addition, the TGI in [10] is greater than 100 µM.

On to `O=C1c2ccsc2C(=O)c2sc(CO)cc21`, for which the TGI in assay [1] was 0.238 µM; in assay [2] it was 0.102 µM; in [3] it was 3.72 µM; in assay [4], 1.36 µM; in assay [5] it was 3.08 µM; in [6], 0.0491 µM. Further, the TGI in assay [7] is greater than 100 µM; in assay [8], 0.259 µM; in [9] it was 2.97 µM; in [10], 0.164 µM.

Regarding `O=c1cc(N2CCCC2)[nH]c(=O)n1-c1cccc(Cl)c1`, the TGI in assay [1], in assay [2], in assay [3], in assay [4], in assay [5] and in [6] was greater than 100 µM in each case. Also, the TGI in [7], in [8], in assay [9] and in assay [10] was greater than 100 µM in each case.

Regarding `O=C(c1cccs1)N1CCc2ccccc2C1`, the TGI in [1] is greater than 100 µM; in assay [2], greater than 100 µM; in [3], 76 µM; in [4] it was greater than 100 µM; in [5], greater than 100 µM; in assay [6], greater than 100 µM. Also, the TGI in [7], in assay [8], in assay [9] and in assay [10] was greater than 100 µM throughout.

For the compound `C=C(C)[C@H]1Cc2c(ccc3c2O[C@@H]2COc4cc(OC)c(OC)cc4[C@@H]2C3=O)O1`, the TGI is 87 µM in [1]; 40.4 µM in assay [2]; 0.381 µM in [3]; greater than 100 µM in assay [4]; 14.3 µM in assay [5]; 8.04 µM in assay [6]. The TGI in assay [7] turned out to be 45.2 µM; in [8] it was 0.404 µM; in [9], 48.8 µM; in assay [10], 82.8 µM.

`CC(=O)[C@@H](C)C(=O)N1C(=O)OC[C@@]12[C@@H]1CC[C@@H](C1)C2(C)C`: the TGI in assay [1], in assay [2], in assay [3], in assay [4], in assay [5] and in assay [6] was greater than 100 µM throughout. The TGI in [8], in assay [9] and in assay [10] was greater than 100 µM each time.

Take `O=c1c2ccccc2nc(Cc2nc(-c3ccc(Cl)cc3)cs2)n1-c1ccc(Cl)cc1`: the TGI in assay [1], in assay [2], in [3], in assay [4], in [5] and in [6] was greater than 100 µM throughout. For the same compound, the TGI in assay [7], in assay [8], in assay [9] and in [10] was greater than 100 µM throughout.

As to `CCCCC1Cc2ccccc2-c2nc3ccccc3n21` (stereo not given), the TGI in assay [1] turned out to be 31 µM; in assay [2] it was 28.4 µM; in assay [3], 0.231 µM; in assay [4] it was 32.9 µM; in assay [5], 38.5 µM; in [6], 31.6 µM. Besides, the TGI was 32.9 µM in assay [7], 26.5 µM in [8], 37.5 µM in assay [9] and 33.9 µM in assay [10].
